pIC50: −log10 of the molar value.
How the values were obtained:
[1] = tested on: tyrosinase activity of normal human epidermal melanocytes; experiment: Tyrosinase activity of normal human melanocytes in culture (72 h treatment, lysate, L-Dopa substrate, absorbance 450 nm); type: cell-based; settings: for Stimulation of the tyrosinase activity: 72 h
Protocol: a) Melanocyte Culture Conditions:
Normal human epidermal melanocytes are cultured (9th passage) in melanocyte growth medium M2 supplemented with:
Promocell C24300 supplements
Penicillin 50 IU/ml and streptomycin 50 μg/ml (Invitrogen) under standard temperature conditions (37° C.) at 5% CO2.
b) Preparation of the Solutions of the Test Compound:
The final titre of the prepared solutions is 10 mM. The final test concentrations range from 0.1 to 10 μM (PGE2) and 1 to 10 μM (15-PGDH inhibitors).
c)Principle of the Tests:
The tests performed consist in measuring the […] alone or combined with PGE2* on the overall activity of tyrosinase. *PGE2 is a pigmentation modulator that is deactivated by the enzyme 15-PGDH.
The melanocytes are cultured in 96-well plates up to confluence (culture conditions described in a) and the supernatant of each of the wells is then removed and replaced with the medium containing the compounds to be evaluated.
Thus (in triplicate), the 15-PGDH inhibitor alone at 1 μM and 10 μM or, for each of these first conditions, in the presence of 0.1 μM, 1 μM or 10 μM of PGE2.
The cultures are maintained under these various conditions for 72 h, the supernatants are then removed and the cell lawns are washed with a phosphate buffer (pH=7.2). The cells are lysed with a pH 7.2 phosphate buffer containing 1% Triton X100.
The tyrosinase activity of each of the lysates is then estimated against a fungal tyrosinase range (Sigma T7755).
The methodology implemented uses L-Dopa as reaction substrate (45 minutes at 37° C.); the formation of melanin is assessed by measuring the absorbance at 450 nm.
In this test, two references are also evaluated: kojic acid (a tyrosinase inhibitor introduced at 0.1% into the culture medium) and isobutyl methyl xanthine (IBMX), a phosphodiesterase inhibitor which, by limiting the catabolism of cAMP, contributes towards increasing the overall tyrosinase activity as assessed in this test.

[2] = biological target: T1, type-1 15-PGDH (Homo sapiens, UniProt P15428); experiment: Test on type-1 15-PGDH (spectrophotometric, NADH formation at 340 nm, PGE2 substrate); type: biochemical; settings: 37° C., pH 7.4 Tris buffer, 1.5 mM β-NAD, 50 μM Prostaglandin E2
T1 construct: made in house
T1 sequence (P15428 1-266): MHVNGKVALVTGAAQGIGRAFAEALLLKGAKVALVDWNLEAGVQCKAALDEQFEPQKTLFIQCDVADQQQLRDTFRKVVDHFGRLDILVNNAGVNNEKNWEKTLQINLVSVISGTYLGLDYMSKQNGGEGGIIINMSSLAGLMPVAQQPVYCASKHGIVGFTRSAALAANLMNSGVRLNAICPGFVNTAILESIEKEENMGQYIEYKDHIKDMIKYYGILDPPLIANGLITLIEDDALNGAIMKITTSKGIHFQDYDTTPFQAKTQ
Protocol: For the purposes of the test, this suspension is thawed and stored in ice.
0.965 ml of this buffer (brought to 37° C. beforehand) is introduced into the cuvette of a spectrophotometer (Perkin-Elmer, Lambda 2) thermostatically maintained at 37° C., the measuring wavelength of which is set at 340 nm. 0.035 mL of enzymatic suspension at 37° C. is introduced into the cuvette concomitantly with the recording (corresponding to an increase in the optical density at 340 nm). The maximum reaction rate is recorded.

For `CC(C)(C)c1ccc(Oc2ccccc2/C=C2\SC(=O)N=C2[O-])cc1.[Na+]` [Compound 4, (5Z)-5-[2-(4-tert-butylphenoxy)benzylidene]-1,3-thiazolidine-2,4-dione], the “Stimulation of the tyrosinase activity” value ([1]; Compound 4 1 μM + PGE2 0.1 μM) was “+27%”, the “Stimulation of the tyrosinase activity” value ([1]; Compound 4 1 μM + PGE2 1 μM) was “+40%” and the “Stimulation of the tyrosinase activity” value ([1]; Compound 4 1 μM + PGE2 10 μM) was “+32%”. For the same molecule, the “Stimulation of the tyrosinase activity” value ([1]; Compound 4 1 μM alone) was “+16%”.

Work on `O=C1NC(=O)/C(=C\c2ccc(OCc3cccc(Cl)c3)cc2)S1` [Compound 13] yielded a pIC50 [2] of 5.30.

With `O=C1NC(=O)/C(=C/c2ccccc2Oc2ccc(Br)c(F)c2)S1` [Compound 14] the pIC50 [2] was 5.81.

In the case of `CCCCC[C@H](O)/C=C/[C@H]1[C@H](O)CC(=O)[C@@H]1C/C=C\CCCC(=O)O` [PGE2, Prostaglandin E2, reference compound], the “Stimulation of the activity of tyrosinase” value ([1]; PGE2 alone at 0.1 μM) was “+3%” and the “Stimulation of the activity of tyrosinase” value ([1]; PGE2 alone at 1 μM) was “+9%”.
